Data on 20 compounds can be found in PubChem BioAssay (NCI).

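Grown in 96-well plates, cells were treated for 48 hours with each compound at five concentrations. Insufficient inhibition: endpoint recorded as highest concentration tested. At the GI50, growth is halved. TGI: concentration producing complete growth inhibition.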 Some results are limits rather than exact numbers.

Among the test systems are NCI-H226 lung; NCI-H522 lung; NCI-H460 lung; SK-MEL-2 melanoma; SNB-75 CNS; SK-MEL-28 melanoma; MALME-3M melanoma; A498 renal; MDA-MB-231 breast; T-47D breast; MDA-MB-435.
What all share (assay): growth of human tumour cells (NCI), 48 h

For `Cc1cccc2[s+]snc12`, the TGI in the assay on NCI-H226 lung is > 100 µM; with NCI-H522 lung it was 35.9 µM; in the assay on NCI-H460 lung it was > 100 µM; in the assay on SK-MEL-2 melanoma, > 100 µM; in the assay with SNB-75 CNS, > 100 µM; with SK-MEL-28 melanoma it was > 70.7 µM. Moreover, the TGI in the assay with MALME-3M melanoma is > 67.3 µM; in the assay on A498 renal, > 100 µM.
As for `CCOC(=O)/C(C#N)=C1\c2c([nH]c(=S)[nH]c2=O)Oc2ccc3ccccc3c21`, the TGI in the assay with MDA-MB-231 breast was > 100 µM; with NCI-H226 lung it was > 100 µM; in the assay on T-47D breast it was > 100 µM; in the assay on NCI-H522 lung, 54.5 µM; in the assay with MDA-MB-435, > 100 µM; in the assay with NCI-H460 lung, > 100 µM. For the same compound, the TGI in the assay on SK-MEL-2 melanoma is 41 µM; with SNB-75 CNS, 52 µM; in the assay on SK-MEL-28 melanoma it was 3.81 µM; in the assay with MALME-3M melanoma, > 100 µM; with A498 renal, > 100 µM.
In the case of `NC(=O)C(c1ccccc1)N1OC2C(=O)N(c3cccc4ccccc34)C(=O)C2C1c1c2ccccc2c(Cl)c2ccccc12` (configuration not stated), the TGI turned out to be 18.8 µM with MDA-MB-231 breast; 13.5 µM in the assay with NCI-H226 lung; 31.7 µM in the assay on T-47D breast; 44.3 µM with NCI-H522 lung; 22.7 µM with MDA-MB-435; 18.6 µM with NCI-H460 lung. In addition, the TGI in the assay with SK-MEL-2 melanoma came to 19.6 µM; with SNB-75 CNS, 20.4 µM; in the assay with SK-MEL-28 melanoma, 34.6 µM; in the assay with MALME-3M melanoma, 35.7 µM; with A498 renal, 37.4 µM.
For the compound `CCC(=O)NC(Nc1ccc(O)cc1)(C(F)(F)F)C(F)(F)F`, the TGI with MDA-MB-231 breast is > 100 µM; with NCI-H226 lung, > 100 µM; in the assay with T-47D breast, > 100 µM; in the assay on NCI-H522 lung, 66.6 µM; in the assay with MDA-MB-435, 65.7 µM; with NCI-H460 lung, > 100 µM. For the same compound, the TGI in the assay with SK-MEL-2 melanoma, in the assay on SNB-75 CNS, in the assay with SK-MEL-28 melanoma, in the assay on MALME-3M melanoma and with A498 renal was > 100 µM in each case.
Regarding `C/C(=N/O)c1cccc(Nc2nc3ccc(Cl)cc3c3[nH]c4ccccc4c23)c1`, the TGI in the assay on MDA-MB-231 breast came out at 9.32 µM; with NCI-H226 lung it was 9.82 µM; with T-47D breast it was 3.5 µM; with NCI-H522 lung, 3.26 µM; in the assay on MDA-MB-435, 3.99 µM; with NCI-H460 lung, 4.29 µM. Besides, the TGI in the assay with SK-MEL-2 melanoma was found to be 3.88 µM; with SNB-75 CNS, 3.36 µM; in the assay on SK-MEL-28 melanoma, 5.25 µM.
Take `NNc1nc2ccccc2s1`: the TGI in the assay on MDA-MB-231 breast, with NCI-H226 lung, in the assay with T-47D breast, with NCI-H522 lung, in the assay on MDA-MB-435 and in the assay on NCI-H460 lung was > 100 µM each time. The TGI in the assay on SK-MEL-2 melanoma, in the assay on SNB-75 CNS, in the assay with SK-MEL-28 melanoma, in the assay with MALME-3M melanoma and with A498 renal was > 100 µM each time.
Regarding `CCC1=CC2Cc3nc4cc(Cl)ccc4c(N)c3C(C1)C2` (configuration not stated), the TGI in the assay on MDA-MB-231 breast worked out at 18.9 µM; with NCI-H226 lung it was 5.73 µM; with T-47D breast, 7.3 µM; with NCI-H522 lung, 16.1 µM; with MDA-MB-435 it was 8.74 µM; in the assay on NCI-H460 lung, 18.5 µM. The TGI in the assay with SK-MEL-2 melanoma turned out to be 21.2 µM; in the assay with SNB-75 CNS it was 18.5 µM; with SK-MEL-28 melanoma it was 7.5 µM; with MALME-3M melanoma, 9.46 µM; with A498 renal, 17.3 µM.
With `NC(N)=N/N=C/c1c(-c2ccc([N+](=O)[O-])cc2)nc2n1CCS2`, the TGI in the assay on MDA-MB-231 breast was 16 µM; in the assay on NCI-H226 lung, 42.9 µM; in the assay on T-47D breast, 16.3 µM; in the assay with NCI-H522 lung it was 29.4 µM; in the assay with MDA-MB-435 it was 43.5 µM; in the assay on NCI-H460 lung, 32.3 µM. In addition, the TGI with SK-MEL-2 melanoma was 22 µM; in the assay on SNB-75 CNS, 14.5 µM; with SK-MEL-28 melanoma, 34.8 µM; in the assay on MALME-3M melanoma it was 36.6 µM; in the assay on A498 renal, 42 µM.
With `O=[N+]([O-])c1ccc(Nc2nc3ccccc3s2)cc1`, the TGI in the assay with MDA-MB-231 breast is 40.2 µM; with NCI-H226 lung, > 100 µM; with T-47D breast, 14 µM; with NCI-H522 lung, 35.9 µM; in the assay on MDA-MB-435 it was > 100 µM; in the assay on NCI-H460 lung, > 100 µM. The TGI in the assay with SK-MEL-2 melanoma was 81 µM; in the assay with SK-MEL-28 melanoma, > 100 µM; in the assay with MALME-3M melanoma, 46.1 µM; with A498 renal it was 92 µM.
As to `CC1=CC(=O)C(=O)C2=C1OC1(C2)C(C)CCC2C3(C)CCC(O)C(C)(C)C3CCC21C` (configuration not stated), the TGI in the assay with NCI-H226 lung is 35.5 µM; with NCI-H522 lung it was 30.7 µM; in the assay with NCI-H460 lung it was 35.1 µM; in the assay on SNB-75 CNS, > 100 µM; in the assay with SK-MEL-28 melanoma, 42.9 µM; in the assay on MALME-3M melanoma it was 35.3 µM.
In the case of `N=C(N)c1csc([C@@H]2O[C@H](CO)[C@@H](O)[C@H]2O)n1`, the TGI in the assay with NCI-H226 lung, with NCI-H460 lung, in the assay on SK-MEL-2 melanoma, with SNB-75 CNS, in the assay with SK-MEL-28 melanoma and in the assay with MALME-3M melanoma was > 100 µM each time.
`COc1ccc2c(c1)N=C1CSC(c3cccc(Br)c3)N1C2` (configuration not stated): the TGI is 50.6 µM in the assay with MDA-MB-231 breast; 43.5 µM with NCI-H226 lung; > 100 µM with T-47D breast; 39.1 µM in the assay with NCI-H522 lung; 34.5 µM in the assay on MDA-MB-435; 23.7 µM in the assay with NCI-H460 lung. For the same compound, the TGI in the assay on SK-MEL-2 melanoma was 36.3 µM; in the assay with SNB-75 CNS, 38.5 µM; with SK-MEL-28 melanoma it was > 100 µM; with MALME-3M melanoma it was 43.1 µM.
With `CC12CCC(C(=O)N3CC=CCC3)(OC1=O)C2(C)C` (configuration not stated), the TGI in the assay on NCI-H226 lung, with NCI-H522 lung, in the assay on NCI-H460 lung, in the assay with SK-MEL-2 melanoma, in the assay on SNB-75 CNS and in the assay with SK-MEL-28 melanoma was > 100 µM each time. Further, the TGI with MALME-3M melanoma and with A498 renal was > 100 µM each time.
For the compound `c1cn2cc(-c3ccc4ncn(C5CCCCC5)c4c3)nc(-c3ccc4c(c3)ncn4C3CCCCC3)c2n1`, the GI50 in the assay with MDA-MB-231 breast is 1.29 µM; in the assay with T-47D breast it was 1.9 µM; with MDA-MB-435 it was 1.77 µM; in the assay with NCI-H460 lung it was 1.98 µM; with SK-MEL-2 melanoma, 1.74 µM; with SNB-75 CNS, 1.39 µM. Besides, the GI50 was 1.81 µM in the assay with SK-MEL-28 melanoma, 2.11 µM in the assay with MALME-3M melanoma and 1.77 µM in the assay with A498 renal. Also, the TGI with MDA-MB-231 breast amounted to 3.08 µM; in the assay on T-47D breast it was 4.69 µM; in the assay with MDA-MB-435, 3.54 µM; in the assay on NCI-H460 lung, 4.02 µM; in the assay on SK-MEL-2 melanoma, 3.35 µM; in the assay on SNB-75 CNS, 3.07 µM. Besides, the TGI in the assay on SK-MEL-28 melanoma was 3.41 µM; in the assay with MALME-3M melanoma, 3.75 µM; with A498 renal it was 3.22 µM.
As for `O=C1C(=O)c2ccccc2C(O)=C1CN(CCCl)CCCl`, the TGI in the assay on NCI-H522 lung, with NCI-H460 lung, with SK-MEL-2 melanoma, in the assay with SNB-75 CNS, in the assay with SK-MEL-28 melanoma and in the assay with MALME-3M melanoma was > 100 µM each time. Moreover, the TGI in the assay with A498 renal is > 100 µM.
For the compound `COc1cc(C2=C(C#N)C(N)OC3=C2COc2ccccc23)cc(OC)c1OC` (configuration not stated), the TGI in the assay with MDA-MB-231 breast is 43.8 µM; with NCI-H226 lung it was 91.1 µM; in the assay with MDA-MB-435, > 100 µM; in the assay with NCI-H460 lung, 84.8 µM; with SK-MEL-2 melanoma, > 100 µM; with SK-MEL-28 melanoma, > 100 µM. In addition, the results for the TGI in the assay on MALME-3M melanoma and in the assay on A498 renal were 32.3 µM and 56.3 µM, respectively.
Regarding `Nc1ccc2c3c(n(CCCCl)c(=O)c2c1)-c1cc2c(cc1C3=O)OCO2`, the GI50 with MDA-MB-231 breast was 60.1 µM; in the assay with T-47D breast, > 100 µM; with MDA-MB-435, > 100 µM; in the assay with NCI-H460 lung, 0.14 µM; with SK-MEL-2 melanoma, > 100 µM; with SNB-75 CNS it was > 100 µM. In addition, the GI50 was > 100 µM with SK-MEL-28 melanoma and 7.79 µM with MALME-3M melanoma. The TGI in the assay on MDA-MB-231 breast, in the assay with T-47D breast, in the assay with MDA-MB-435, in the assay on NCI-H460 lung, in the assay with SK-MEL-2 melanoma and in the assay with SNB-75 CNS was > 100 µM each time. The TGI in the assay on SK-MEL-28 melanoma and in the assay with MALME-3M melanoma was > 100 µM in each case.
Take `COC1CC(OC2CCC3(C)C(CCC45CCC(C6=CC(=O)OC6)C(C)(CCC43)C5=O)C2)OC(C)C1O` (configuration not stated): the TGI is > 100 µM in the assay with MDA-MB-231 breast; > 100 µM in the assay with NCI-H226 lung; > 100 µM in the assay on T-47D breast; 82.1 µM in the assay with NCI-H522 lung; > 100 µM with MDA-MB-435; 32.4 µM with NCI-H460 lung. Also, the TGI in the assay with SK-MEL-2 melanoma, in the assay on SNB-75 CNS, in the assay on SK-MEL-28 melanoma and with A498 renal was > 100 µM throughout.
Take `O=C(O)C1Cc2c([nH]c3ccccc23)C=N1` (configuration not stated): the TGI in the assay with NCI-H522 lung, in the assay with NCI-H460 lung, in the assay on SK-MEL-2 melanoma, with SNB-75 CNS, in the assay on SK-MEL-28 melanoma and with MALME-3M melanoma was > 100 µM each time. Also, in the assay with A498 renal, the TGI is > 100 µM.
In the case of `NC(CCP(=O)(O)CCC1C=CC=CC1)C(=O)O` (configuration not stated), the TGI was > 100 µM with MDA-MB-231 breast; > 100 µM with T-47D breast; 55.4 µM with NCI-H522 lung; > 100 µM in the assay on MDA-MB-435; > 100 µM in the assay on NCI-H460 lung; > 100 µM in the assay on SK-MEL-2 melanoma. Besides, the TGI in the assay with SNB-75 CNS and in the assay on SK-MEL-28 melanoma was > 100 µM each time.
